Measurements as given in ChEMBL document CHEMBL3286379, “Design and synthesis of pyrimidine molecules endowed with thiazolidin-4-one as new anticancer agents” (Eur J Med Chem, 2014).

Experiments:
Type in all cases: functional
[1] = Growth inhibition of human UACC257 cells assessed as cell growth at 10 uM after 48 hrs by sulforhodamine B assay relative to control; details: UACC-257, 48 h, read-out: Activity
[2] = Growth inhibition of human LOXIMVI cells assessed as cell growth at 10 uM after 48 hrs by sulforhodamine B assay relative to control; details: LOX IMVI, read-out: Activity
[3] = Growth inhibition of human OVCAR8 cells assessed as cell growth at 10 uM after 48 hrs by sulforhodamine B assay relative to control; details: OVCAR-8, 48 h, read-out: Activity
NCI-H460 = experiment: Growth inhibition of human NCI-H460 cells assessed as cell growth at 10 uM after 48 hrs by sulforhodamine B assay relative to control; details: NCI-H460, 48 h, read-out: Activity
NCI-H226 = experiment: Growth inhibition of human NCI-H226 cells assessed as cell growth at 10 uM after 48 hrs by sulforhodamine B assay relative to control; details: NCI-H226, 48 h, read-out: Activity
[4] = Growth inhibition of human BT549 cells assessed as cell growth at 10 uM after 48 hrs by sulforhodamine B assay relative to control; details: BT-549, 48 h, read-out: Activity
MCF7 [5] = experiment: Growth inhibition of human MCF7 cells assessed as cell growth at 10 uM after 48 hrs by sulforhodamine B assay relative to control; details: MCF7, 48 h, read-out: Activity
HOP-62 = experiment: Growth inhibition of human HOP62 cells after 48 hrs by sulforhodamine B assay; details: HOP-62, 48 h
MCF7 [6] = experiment: Growth inhibition of human MCF7 cells after 48 hrs by sulforhodamine B assay; details: MCF7, 48 h
SK-MEL-2 = experiment: Growth inhibition of human SK-MEL-2 cells assessed as cell growth at 10 uM after 48 hrs by sulforhodamine B assay relative to control; details: SK-MEL-2, 48 h, read-out: Activity
CAKI-1 = experiment: Growth inhibition of human CAKI-1 cells assessed as cell growth at 10 uM after 48 hrs by sulforhodamine B assay relative to control; details: CAKI-1, 48 h, read-out: Activity
SF-268 = experiment: Growth inhibition of human SF268 cells after 48 hrs by sulforhodamine B assay; details: SF-268, 48 h
[7] = Growth inhibition of human OVCAR4 cells assessed as cell growth at 10 uM after 48 hrs by sulforhodamine B assay relative to control; details: OVCAR-4, 48 h, read-out: Activity
[8] = Growth inhibition of human HCC2998 cells assessed as cell growth at 10 uM after 48 hrs by sulforhodamine B assay relative to control; details: HCC 2998, 48 h, read-out: Activity
IGROV-1 = experiment: Growth inhibition of human IGROV1 cells assessed as cell growth at 10 uM after 48 hrs by sulforhodamine B assay relative to control; details: IGROV-1, 48 h, read-out: Activity
SR = experiment: Growth inhibition of human SR cells assessed as cell growth at 10 uM after 48 hrs by sulforhodamine B assay relative to control; details: read-out: Activity
SNB-19 [9] = experiment: Growth inhibition of human SNB19 cells assessed as cell growth at 10 uM after 48 hrs by sulforhodamine B assay relative to control; details: SNB-19, 48 h, read-out: Activity
HT-29 = experiment: Growth inhibition of human HT-29 cells after 48 hrs by sulforhodamine B assay; details: HT-29, 48 h
HL-60(TB) = experiment: Growth inhibition of human HL-60(TB) cells assessed as cell growth at 10 uM after 48 hrs by sulforhodamine B assay relative to control; details: HL-60, 48 h, read-out: Activity
KM12 = experiment: Growth inhibition of human KM12 cells assessed as cell growth at 10 uM after 48 hrs by sulforhodamine B assay relative to control; details: KM12, 48 h, read-out: Activity
SK-OV-3 = experiment: Growth inhibition of human SKOV3 cells assessed as cell growth at 10 uM after 48 hrs by sulforhodamine B assay relative to control; details: SK-OV-3, 48 h, read-out: Activity
TK-10 = experiment: Growth inhibition of human TK10 cells after 48 hrs by sulforhodamine B assay; details: TK-10, 48 h
[10] = Growth inhibition of human SF539 cells assessed as cell growth at 10 uM after 48 hrs by sulforhodamine B assay relative to control; details: SF-539, 48 h, read-out: Activity
SK-MEL-28 = experiment: Growth inhibition of human SK-MEL-28 cells assessed as cell growth at 10 uM after 48 hrs by sulforhodamine B assay relative to control; details: SK-MEL-28, 48 h, read-out: Activity
K562 = experiment: Growth inhibition of human K562 cells assessed as cell growth at 10 uM after 48 hrs by sulforhodamine B assay relative to control; details: K562, 48 h, read-out: Activity
SNB-19 [11] = experiment: Growth inhibition of human SNB19 cells after 48 hrs by sulforhodamine B assay; details: SNB-19, 48 h
[12] = Growth inhibition of human HOP92 cells assessed as cell growth at 10 uM after 48 hrs by sulforhodamine B assay relative to control; details: HOP-92, 48 h, read-out: Activity
NCI-H522 = experiment: Growth inhibition of human NCI-H522 cells assessed as cell growth at 10 uM after 48 hrs by sulforhodamine B assay relative to control; details: NCI-H522, 48 h, read-out: Activity
MDA-MB-435 = experiment: Growth inhibition of human MDA-MB-435 cells assessed as cell growth at 10 uM after 48 hrs by sulforhodamine B assay relative to control; details: MDA-MB-435, 48 h, read-out: Activity
[13] = read-out: LC50 (the source's name)
[14] = read-out: pLC50 (the source's name) (converted)

Compound: Nc1nc(-c2ccccc2Cl)cc(-c2ccc(Cl)cc2Cl)n1
- growth at 10 µM [1]: 93%
- growth at 10 µM [2]: 55.4%
- growth at 10 µM [3]: 71.2%
- growth at 10 µM (NCI-H460): 49.8%
- growth at 10 µM (NCI-H226): 87.7%
- growth at 10 µM [4]: 75.3%
- growth at 10 µM (MCF7 [5]): 45.7%
- GI50 (HOP-62; read-out: GI50): 8.21 µM
- CC50 (HOP-62; [13]): > 100 µM
- TGI (HOP-62; read-out: TGI): > 100 µM
- GI50 (HOP-62; read-out: pGI50 (converted)): 8.13 µM
- CC50 (HOP-62; [14]): > 100 µM
- TGI (HOP-62; read-out: pTGI): > 100 µM
- GI50 (MCF7 [6]; read-out: GI50): 3.45 µM
- CC50 (MCF7 [6]; [13]): > 100 µM
- TGI (MCF7 [6]; read-out: TGI): > 100 µM
- GI50 (MCF7 [6]; read-out: pGI50 (converted)): 3.47 µM
- CC50 (MCF7 [6]; [14]): > 100 µM
- TGI (MCF7 [6]; read-out: pTGI): > 100 µM
- growth at 10 µM (SK-MEL-2): 96.2%
- growth at 10 µM (CAKI-1): 68%
- GI50 (SF-268; read-out: GI50): 5.01 µM
- CC50 (SF-268; [13]): > 100 µM
- TGI (SF-268; read-out: TGI): 81.6 µM
- GI50 (SF-268; read-out: pGI50 (converted)): 5.01 µM
- CC50 (SF-268; [14]): > 100 µM
- TGI (SF-268; read-out: pTGI (converted)): 81.3 µM
- growth at 10 µM [7]: 79.6%
- growth at 10 µM [8]: 83.6%
- growth at 10 µM (IGROV-1): 74.7%
- growth at 10 µM (SR): 25.4%
- growth at 10 µM (SNB-19 [9]): 78.2%
- GI50 (HT-29; read-out: GI50): 4.32 µM
- CC50 (HT-29; [13]): > 100 µM
- TGI (HT-29; read-out: TGI): 24.3 µM
- GI50 (HT-29; read-out: pGI50 (converted)): 4.37 µM
- CC50 (HT-29; [14]): > 100 µM
- TGI (HT-29; read-out: pTGI (converted)): 24.5 µM
- growth at 10 µM (HL-60(TB)): 51.4%
- growth at 10 µM (KM12): 53.8%
- growth at 10 µM (SK-OV-3): 93%
- GI50 (TK-10; read-out: GI50): 9.46 µM
- CC50 (TK-10; [13]): > 100 µM
- TGI (TK-10; read-out: TGI): 51 µM
- GI50 (TK-10; read-out: pGI50 (converted)): 9.55 µM
- CC50 (TK-10; [14]): > 100 µM
- TGI (TK-10; read-out: pTGI (converted)): 51.3 µM
- growth at 10 µM [10]: 72.2%
- growth at 10 µM (SK-MEL-28): 88%
- growth at 10 µM (K562): 27.3%
- GI50 (SNB-19 [11]; read-out: GI50): 16.1 µM
- CC50 (SNB-19 [11]; [13]): > 100 µM
- TGI (SNB-19 [11]; read-out: TGI): > 100 µM
- GI50 (SNB-19 [11]; read-out: pGI50 (converted)): 16.2 µM
- CC50 (SNB-19 [11]; [14]): > 100 µM
- TGI (SNB-19 [11]; read-out: pTGI): > 100 µM
- growth at 10 µM [12]: 76.2%
- growth at 10 µM (NCI-H522): 68.5%
- growth at 10 µM (MDA-MB-435): 0.07%

Compound: O=C1CS/C(=N\c2nc(-c3ccccc3Cl)cc(-c3ccc(Cl)cc3Cl)n2)N1
- growth at 10 µM [1]: 107%
- growth at 10 µM [2]: 90.4%
- growth at 10 µM [3]: 96.1%
- growth at 10 µM (NCI-H460): 103%
- growth at 10 µM (NCI-H226): 104%
- growth at 10 µM [4]: 98.4%
- growth at 10 µM (MCF7 [5]): 87.2%
- growth at 10 µM (SK-MEL-2): 97.9%
- growth at 10 µM (CAKI-1): 88.6%
- growth at 10 µM [7]: 96.1%
- growth at 10 µM [8]: 101%
- growth at 10 µM (IGROV-1): 98.2%
- growth at 10 µM (SR): 75.1%
- growth at 10 µM (SNB-19 [9]): 101%
- growth at 10 µM (HL-60(TB)): 96.1%
- growth at 10 µM (KM12): 97.7%
- growth at 10 µM (SK-OV-3): 95.4%
- growth at 10 µM [10]: 103%
- growth at 10 µM (SK-MEL-28): 102%
- growth at 10 µM (K562): 79.5%
- growth at 10 µM [12]: 84.6%
- growth at 10 µM (NCI-H522): 88.6%
- growth at 10 µM (MDA-MB-435): 78.5%

Compound: O=C1N/C(=N/c2nc(-c3ccccc3Cl)cc(-c3ccc(Cl)cc3Cl)n2)S/C1=C/c1ccc(Cl)cc1
- growth at 10 µM [1]: 93.2%
- growth at 10 µM [2]: 74.1%
- growth at 10 µM [3]: 91.6%
- growth at 10 µM (NCI-H460): 87.2%
- growth at 10 µM (NCI-H226): 98.5%
- growth at 10 µM [4]: 92.2%
- growth at 10 µM (MCF7 [5]): 50.4%
- growth at 10 µM (SK-MEL-2): 88.9%
- growth at 10 µM (CAKI-1): 97.2%
- growth at 10 µM [7]: 81.9%
- growth at 10 µM [8]: 102%
- growth at 10 µM (IGROV-1): 82.3%
- growth at 10 µM (SR): 32.4%
- growth at 10 µM (SNB-19 [9]): 93.4%
- growth at 10 µM (HL-60(TB)): 87.1%
- growth at 10 µM (KM12): 79.8%
- growth at 10 µM (SK-OV-3): 99.2%
- growth at 10 µM [10]: 97.3%
- growth at 10 µM (SK-MEL-28): 104%
- growth at 10 µM (K562): 37.6%
- growth at 10 µM [12]: 55.1%
- growth at 10 µM (NCI-H522): 82.3%
- growth at 10 µM (MDA-MB-435): 32.1%
